This note sets out measurements from PubChem BioAssay (NCI).

Some test systems named below: 786-0 renal; NCI-H226 lung; UACC-257 melanoma; M14 melanoma; SK-MEL-2 melanoma; HCC-2998 colon; MDA-MB-435; RXF 393 renal; SN12C renal; MALME-3M melanoma; MDA-N.
Holding throughout (assay): growth of human tumour cells (NCI), 48 h

Structures are written as SMILES. Several values for one entry are separate records, joined by “and”; a condition that tells them apart may be missing. Equal values may be shown once.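 How tested: cells in 96-well plates exposed to compound for 48 hours at five concentrations. TGI marks complete inhibition of growth.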

`CN(C)CCCN1c2ccc([N+](=O)[O-])cc2CCc2cc([N+](=O)[O-])ccc21`: the TGI was 24.5 µM and 27.5 µM in the experiment on 786-0 renal; 32.8 µM and 33.4 µM in the experiment on NCI-H226 lung; 28.7 µM and 27.4 µM with UACC-257 melanoma; 31 µM and 28 µM with M14 melanoma; 36.9 µM and 32.4 µM with SK-MEL-2 melanoma; 21.9 µM and 24.7 µM in the experiment with HCC-2998 colon. Further, the TGI in the experiment with MDA-MB-435 was 26.5 µM and 29.5 µM; with RXF 393 renal, 19.9 µM and 25.6 µM; in the experiment with SN12C renal it was 29.3 µM and 28.4 µM; in the experiment with MALME-3M melanoma, 23.2 µM and 32.8 µM; with MDA-N it was 27.2 µM and 27 µM.
Consider `C[N+](C)(C)CCN[N+]1(C)CCCc2ccccc21` (stereo not given), for which the TGI with 786-0 renal, in the experiment on NCI-H226 lung, with UACC-257 melanoma, in the experiment with M14 melanoma, in the experiment with SK-MEL-2 melanoma and in the experiment with HCC-2998 colon was greater than 100 µM each time. The TGI in the experiment with MDA-MB-435 was greater than 100 µM; in the experiment with RXF 393 renal it was greater than 100 µM; in the experiment on SN12C renal, greater than 100 µM; in the experiment with MALME-3M melanoma it was 50.3 µM; in the experiment on MDA-N it was greater than 100 µM.
Consider `c1ccc([P+](c2ccccc2)(c2ccccc2)c2ccc(-c3ccc([P+](c4ccccc4)(c4ccccc4)c4ccccc4)cc3)cc2)cc1`, for which the TGI with 786-0 renal was greater than 100 µM; in the experiment with NCI-H226 lung it was 71 µM; in the experiment on UACC-257 melanoma it was 63 µM; with M14 melanoma, greater than 100 µM; in the experiment on SK-MEL-2 melanoma, 62 µM; with HCC-2998 colon, greater than 100 µM. Also, the TGI is 84.5 µM in the experiment on MDA-MB-435; greater than 100 µM in the experiment with RXF 393 renal; 97.1 µM with SN12C renal; 89.9 µM with MALME-3M melanoma; 92.6 µM in the experiment with MDA-N.
For the compound `Cc1c2cc[n+](C)cc2c(C)c2c1oc1ccccc12`, the TGI in the experiment with 786-0 renal amounted to 31.8 µM; with NCI-H226 lung, 10.1 µM; in the experiment with UACC-257 melanoma, 17.9 µM; in the experiment on M14 melanoma, 31.5 µM; in the experiment with SK-MEL-2 melanoma, 15.8 µM; with HCC-2998 colon, 12.3 µM. Moreover, the TGI worked out at 21.5 µM with MDA-MB-435; 70.3 µM in the experiment on RXF 393 renal; 4.57 µM in the experiment on SN12C renal; 3.99 µM in the experiment with MALME-3M melanoma; 23.8 µM in the experiment on MDA-N.
Take `CCOC(=O)Nc1cc2c(c(N)n1)N=C(c1ccc3ccccc3c1)CN2`: the TGI was 3.81 µM in the experiment on 786-0 renal; 3.5 µM in the experiment with NCI-H226 lung; greater than 100 µM in the experiment on UACC-257 melanoma; 17.5 µM in the experiment with M14 melanoma; 5.15 µM in the experiment with SK-MEL-2 melanoma; 1.47 µM with HCC-2998 colon. For the same compound, the TGI in the experiment on MDA-MB-435 came out at 0.338 µM; in the experiment with RXF 393 renal, 27.4 µM; in the experiment on SN12C renal, 5.29 µM; in the experiment with MALME-3M melanoma it was 19.3 µM; in the experiment with MDA-N, 1.04 µM.
